Source: paper PMC11811690 (Angewandte Chemie (International Ed. in English), 2024)

Tested on: Rif-resistant Mtb isolate (clinical isolate, rpoB mutant S531L)
Type: cell-based, Mycobacterium tuberculosis

CC[C@H]1/C=C(\C)[C@@H](O)C/C=C/C=C(\CN(C)Cc2nnc(-c3ccccc3)o2)C(=O)O[C@H]([C@@H](C)O)C/C=C(C)/C=C(\C)[C@@H]1O[C@@H]1OC(C)(C)[C@@H](OC(=O)C(C)C)[C@H](O)[C@@H]1O [compound 7]
MIC Rif-resistant Mtb isolate, turbidity read-out: 8 to 16 µg/mL

CC[C@H]1/C=C(\C)[C@@H](O)C/C=C/C=C(\CNc2nc3ccccc3s2)C(=O)O[C@H]([C@@H](C)O)C/C=C(C)/C=C(\C)[C@@H]1O[C@@H]1OC(C)(C)[C@@H](OC(=O)C(C)C)[C@H](O)[C@@H]1O [compound 9]
MIC Rif-resistant Mtb isolate, turbidity read-out: 8 to 16 µg/mL

CC[C@H]1/C=C(\C)[C@@H](O)C/C=C/C=C(\CNc2nc(COc3ccccc3)cs2)C(=O)O[C@H]([C@@H](C)O)C/C=C(C)/C=C(\C)[C@@H]1O[C@@H]1OC(C)(C)[C@@H](OC(=O)C(C)C)[C@H](O)[C@@H]1O [compound 10]
MIC Rif-resistant Mtb isolate, turbidity read-out: 8 to 16 µg/mL

CC[C@H]1/C=C(\C)[C@@H](O)C/C=C/C=C(\CNc2nc(-c3ccccc3)cs2)C(=O)O[C@H]([C@@H](C)O)C/C=C(C)/C=C(\C)[C@@H]1O[C@@H]1OC(C)(C)[C@@H](OC(=O)C(C)C)[C@H](O)[C@@H]1O [compound 13]
MIC Rif-resistant Mtb isolate, turbidity read-out: 8 to 16 µg/mL

CC[C@H]1/C=C(\C)[C@@H](O)C/C=C/C=C(\CNCc2nnc(-c3ccccc3)o2)C(=O)O[C@H]([C@@H](C)O)C/C=C(C)/C=C(\C)[C@@H]1O[C@@H]1OC(C)(C)[C@@H](OC(=O)C(C)C)[C@H](O)[C@@H]1O [compound 16]
MIC Rif-resistant Mtb isolate, turbidity read-out: 4 to 8 µg/mL

CC[C@H]1/C=C(\C)[C@@H](O)C/C=C/C=C(\CNCc2nnc(-c3ccc(OC)c(OC)c3Cl)o2)C(=O)O[C@H]([C@@H](C)O)C/C=C(C)/C=C(\C)[C@@H]1O[C@@H]1OC(C)(C)[C@@H](OC(=O)C(C)C)[C@H](O)[C@@H]1O [compound 18]
MIC Rif-resistant Mtb isolate, turbidity read-out: 4 to 8 µg/mL

CC[C@H]1/C=C(\C)[C@@H](O)C/C=C/C=C(\CNCc2nnc(-c3ccc(C(F)(F)F)cc3)o2)C(=O)O[C@H]([C@@H](C)O)C/C=C(C)/C=C(\C)[C@@H]1O[C@@H]1OC(C)(C)[C@@H](OC(=O)C(C)C)[C@H](O)[C@@H]1O [compound 23]
MIC Rif-resistant Mtb isolate, turbidity read-out: 4-8

CC[C@H]1/C=C(\C)[C@@H](O)C/C=C/C=C(\CNc2ccc(C#N)cc2)C(=O)O[C@H]([C@@H](C)O)C/C=C(C)/C=C(\C)[C@@H]1O[C@@H]1OC(C)(C)[C@@H](OC(=O)C(C)C)[C@H](O)[C@@H]1O [compound 24]
MIC Rif-resistant Mtb isolate, turbidity read-out: 16-32

CC[C@H]1/C=C(\C)[C@@H](O)C/C=C/C=C(\CNc2ccc(C#N)cn2)C(=O)O[C@H]([C@@H](C)O)C/C=C(C)/C=C(\C)[C@@H]1O[C@@H]1OC(C)(C)[C@@H](OC(=O)C(C)C)[C@H](O)[C@@H]1O [compound 25]
MIC Rif-resistant Mtb isolate, turbidity read-out: 16-32
